# Source: patent US4882357A, “Novel N-(substituted-phenyl)-5-(substituted-2,5-dimethylphenoxy)-2,2-dimethylp entanamides” (Warner-Lambert Company, priority 1988, dated 1989)
# Tests used:
# [1] = biological target: T1, acyl-CoA:cholesterol acyltransferase (ACAT) (Oryctolagus cuniculus, UniProt G1SFD9); test: inhibition of esterification of cholesterol by ACAT (cholesteryl oleate formation), rabbit intestinal microsomal fraction; type: biochemical; settings: endogenous cholesterol, exogenous 14C-oleoyl-CoA, read-out: IC50 (concentration of test compound required to inhibit cholesteryl oleate formation to 50% of control)
# T1 construct: rabbit intestinal microsomal fraction; from tissue; host or cells: rabbit intestine, microsomal fraction
# T1 sequence (G1SFD9 1-524): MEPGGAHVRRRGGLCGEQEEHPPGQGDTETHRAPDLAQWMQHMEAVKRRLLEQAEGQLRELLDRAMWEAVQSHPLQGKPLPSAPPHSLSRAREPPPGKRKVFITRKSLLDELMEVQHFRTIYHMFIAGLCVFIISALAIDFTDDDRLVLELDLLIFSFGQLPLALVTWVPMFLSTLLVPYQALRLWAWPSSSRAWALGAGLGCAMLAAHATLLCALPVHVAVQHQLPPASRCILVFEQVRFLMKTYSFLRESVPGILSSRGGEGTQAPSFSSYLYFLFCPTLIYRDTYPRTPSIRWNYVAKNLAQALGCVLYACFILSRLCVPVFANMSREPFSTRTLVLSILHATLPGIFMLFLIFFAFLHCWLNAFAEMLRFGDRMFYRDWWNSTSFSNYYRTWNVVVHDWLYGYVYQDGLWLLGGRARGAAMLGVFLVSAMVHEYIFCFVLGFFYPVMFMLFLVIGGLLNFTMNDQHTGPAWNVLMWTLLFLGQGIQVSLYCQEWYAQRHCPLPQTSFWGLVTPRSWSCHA
# Experimental: The compounds of the present invention were tested for their ability to inhibit the esterification of cholesterol by the enzyme acyl-CoA:cholesterol acyltransferase (ACAT). The data in the table below is expressed as IC50 values, i.e., the concentration of test compound required to inhibit cholesteryl oleate formation to 50% of control.
# The in vitro test employed is more fully described in Field, F. J. and Salome, R. G., Biochemica et Biophysica Acta, 712, pp 557-570 (1982). The assay evaluates the ability of a test compound to inhibit the esterification of cholesterol using endogenous cholesterol of a rabbit intestinal microsomal fraction and exogenous ^14 C-oleoyl-CoA as reactants.
# [2] = tested on: HDL; test: elevation of HDL, test drug versus gemfibrozil; type: in vivo, rats; settings: 50 mg/kg test drug vs 50 mg/kg gemfibrozil; 1 = as effective as gemfibrozil
# Experimental: Additionally, the elevation of HDL is reported in the table as a ratio of the elevation of HDL effected by a dose of 50 mg/kg of the test drug divided by the elevation of HDL effected by a 50 mg/kg dose of gemfibrozil which is used as a control in each experiment. [formula] Thus, a figure of 1 means that the test drug was as effective as gemfibrozil in elevating HDL. […] The test procedure is described in U.S. Pat. No. 4,413,011.
# [3] = tested on: patients with elevated cholesterol levels; settings: cited from earlier work
SMILES,IC50 [1],ratio of the elevation of HDL effected by test drug divided by the elevation of HDL effected by gemfibrozil [2],effect on LDL and HDL ([3]; in words),"reduction of the rate of heart attack and sudden cardiac death ([3]; patients with elevated cholesterol levels, five years)"
"COc1ccccc1NC(=O)C(C)(C)CCCOc1cc(C)ccc1C [Example 1, 5-(2,5-dimethylphenoxy)-N-(2-methoxyphenyl)-2,2-dimethylpentanamide]",14 µM,0.31,,
"COc1cc(C)ccc1NC(=O)C(C)(C)CCCOc1cc(C)ccc1C [Example 1a, 5-(2,5-dimethylphenoxy)-N-(2-methoxy-4-methylphenyl)-2,2-dimethylpentanamide]",6 µM,0.80,,
"Cc1ccc(NC(=O)C(C)(C)CCCOc2cc(C)ccc2C)c(C)c1 [Example 1b, 5-(2,5-Dimethylphenoxy)-N-(2,4-dimethylphenyl)-2,2-dimethylpentanamide]",8 µM,1.29,,
"COc1ccc(NC(=O)C(C)(C)CCCOc2cc(C)ccc2C)cc1OC [Example 1c, N-(3,4-Dimethoxyphenyl)-5-(2,5-dimethylphenoxy)-2,2-dimethylpentanamide]",3 µM,1.10,,
"CCOc1ccccc1NC(=O)C(C)(C)CCCOc1cc(C)ccc1C [Example 1d, 5-(2,5-dimethylphenoxy)-N-(2-ethoxyphenyl)-2,2-dimethylpentanamide]",5 µM,1.08,,
"CCCCCCOc1ccccc1NC(=O)C(C)(C)CCCOc1cc(C)ccc1C [Example 1f, 5-(2,5-dimethylphenoxy)-N[2-(hexyloxy)phenyl]-2,2-dimethylpentanamide]",10 µM,0.42,,
"Cc1ccc(C)c(OCCCC(C)(C)C(=O)Nc2ccc(F)cc2F)c1 [Example 1g, N-(2,4-Difluorophenyl)-5-(2,5-dimethylphenoxy)-2,2dimethylpentanamide]",7 µM,0.36,,
"Cc1ccc(C)c(OCCCC(C)(C)C(=O)Nc2c(F)cc(F)cc2F)c1 [Example 1h, 5-(2,5-dimethylphenoxy)-2,2-dimethyl-N-(2,4,6-trifluorophenyl)pentanamide]",0.8 µM,0.74,,
"Cc1ccc(C)c(OCCCC(C)(C)C(=O)Nc2ccc(C)cc2OC(C)C)c1 [Example 1j, 5-(2,5-Dimethylphenoxy)-2,2-dimethyl-N-[4-methyl-2-(1-methylethoxy)phenyl]pentanamide]",8 µM,0.84,,
"Cc1ccc(C)c(OCCCC(C)(C)C(=O)Nc2ccc3c(c2)OCO3)c1 [Example 1k, N-1,3-Benzodioxol-5-yl-5-(2,5-dimethylphenoxy)-2,2dimethylpentanamide]",6 µM,1.13,,
"COC(=O)C(C)(C)CCCOc1ccccc1NC(=O)C(C)(C)CCCOc1cc(C)ccc1C [Example 1l, 5-[2[[5-(2,5-dimethylphenoxy)2,2-dimethyl-1-oxopentyl]amino]phenoxy]-2,2-dimethylpentanoic acid, methyl ester]",8 µM,0.4,,
"COC(=O)C(C)(C)CCCOc1cccc(NC(=O)C(C)(C)CCCOc2cc(C)ccc2C)c1 [Example 1m, 5-[3-[[5-(2,5-dimethylphenoxy)-2,2-dimethyl-1-oxopentyl]amino]phenoxy]-2,2-dimethylpentanoic acid, methyl ester]",21 µM,1.0,,
"CCOC(=O)C=Cc1ccc(NC(=O)C(C)(C)CCCOc2cc(C)ccc2C)cc1 [Example 5, 3-[4-[[5-(2,5-Dimethylphenoxy)-2,2-dimethyl-1-oxopentyl]amino]phenyl]-2-propenoic acid, ethyl ester, reference compound]",45 µM,0.56,,
Cc1ccc(C)c(OCCCC(C)(C)C(=O)O)c1 [gemfibrozil],,,both lowers LDL and elevates HDL,34%
